In ChEMBL document CHEMBL1121597, “Synthesis and some pharmacological properties of [8-L-tryptophan]oxytocin” (1980):
Positions of bridges follow the written chain, without caps; N, C: chain ends. Residues, ends and D or L forms follow the SMILES beside them.

Experiments:
[1] = tested on: Rattus norvegicus; experiment: Compound was evaluated for the vasopressor activity when injected intravenously into anesthetized rats pretreated with phenoxybenzamine; assay type: functional
[2] = tested on: Rattus norvegicus; experiment: Compound was evaluated for the intrauterine pressure assayed by intravenous injection into anesthetized rats pretreated with diethylstilbestrol; assay type: functional

CC[C@H](C)[C@@H]1NC(=O)[C@H](Cc2ccc(O)cc2)NC(=O)[C@@H](N)CSSC[C@@H](C(=O)N2CCC[C@H]2C(=O)N[C@@H](Cc2c[nH]c3ccccc23)C(=O)NCC(N)=O)NC(=O)[C@H](CC(N)=O)NC(=O)[C@H](CCC(N)=O)NC1=O (H-CYIQNCPWG-NH2; disulfide 1-6)
Activity [1]: <0.25 U mg-1 | Activity [2]: 50 U mg-1
